Values joined by “and” are separate entries in the source; they are usually repeats but may differ in a detail not shown here. Equal values may be shown once.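 Assay format: 96-well plates, 48-hour exposure. At the GI50, growth is halved. Definition used: TGI = concentration required for complete inhibition of growth.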

From PubChem BioAssay (NCI) come the findings set out here.

Test systems include 786-0 renal; A498 renal; DU-145 prostate; MCF7 breast; MDA-MB-231 breast; NCI-H226 lung; OVCAR-8 ovarian; SK-MEL-2 melanoma; TK-10 renal; SK-MEL-28 melanoma.
Test in all cases: growth of human tumour cells (NCI), 48 h

As for `O=S(=O)(NCCCNc1cc(-c2cn(-c3ccccc3)nc2-c2cccc(O)c2)ccn1)c1ccc(Cl)cc1`, the GI50 in the test with 786-0 renal is 1.56 µM; in the test on A498 renal, 0.329 µM; in the test on DU-145 prostate it was 2.33 µM; in the test with MCF7 breast, 1.84 µM; in the test on MDA-MB-231 breast, 1.81 µM; with NCI-H226 lung it was 1.77 µM. The GI50 with OVCAR-8 ovarian was 2.11 µM; with SK-MEL-2 melanoma it was 1.91 µM; with TK-10 renal, 3.16 µM. The TGI in the test on 786-0 renal stood at 4.19 µM; in the test on A498 renal, 2.24 µM; with DU-145 prostate, 7.58 µM; with MCF7 breast, 5.01 µM; in the test on MDA-MB-231 breast, 4.69 µM; in the test with NCI-H226 lung it was 5.13 µM. For the same compound, the TGI in the test with OVCAR-8 ovarian worked out at 6.06 µM; in the test with SK-MEL-2 melanoma, 3.51 µM; in the test with TK-10 renal, 8.97 µM.
As to `O=C(/C=C/c1cccnc1)c1ccccc1O`, the GI50 is 17.2 µM in the test on 786-0 renal; 15.2 µM in the test with A498 renal; 16 µM in the test on DU-145 prostate; 32.3 µM in the test with MCF7 breast; 17.7 µM with MDA-MB-231 breast; 20 µM with NCI-H226 lung. Besides, the GI50 with OVCAR-8 ovarian was 31.5 µM; with SK-MEL-2 melanoma, 22.8 µM; with SK-MEL-28 melanoma, 24.1 µM; with TK-10 renal, 27.6 µM. Further, the TGI in the test with 786-0 renal was 31.8 µM; in the test with A498 renal, 31.4 µM; with DU-145 prostate it was 31.6 µM; in the test with MCF7 breast it was greater than 100 µM; in the test with MDA-MB-231 breast, 46.7 µM; in the test with NCI-H226 lung, 51.7 µM. In addition, the TGI with OVCAR-8 ovarian is greater than 100 µM; in the test with SK-MEL-2 melanoma it was 62.2 µM; in the test with SK-MEL-28 melanoma, 72.3 µM; in the test with TK-10 renal it was greater than 100 µM.
Regarding `S=C(N/N=C(/c1ccccc1)c1ccccn1)Nc1cccc(Cl)c1`, the GI50 with 786-0 renal is 0.675 µM; with A498 renal, 0.195 µM; in the test on DU-145 prostate it was 2.97 µM; with MCF7 breast, 0.00544 µM; with NCI-H226 lung, 0.219 µM; in the test on OVCAR-8 ovarian, 0.0258 µM. The GI50 in the test on SK-MEL-2 melanoma is 0.0753 µM; with SK-MEL-28 melanoma, 2.09 µM; in the test with TK-10 renal, 0.0277 µM. Further, the TGI was 2.51 µM and 5.56 µM in the test with 786-0 renal; 1.72 µM and 6.29 µM with A498 renal; 9.43 µM with DU-145 prostate; 0.918 µM and 6.01 µM in the test on MCF7 breast; 2.27 µM with MDA-MB-231 breast; 1.64 µM and 4.2 µM with NCI-H226 lung. Moreover, the TGI with OVCAR-8 ovarian is 2.87 µM; in the test with SK-MEL-2 melanoma, 2.87 µM; in the test on SK-MEL-28 melanoma, 7.69 µM and 6.18 µM; with TK-10 renal, 2.41 µM and 6 µM.
As for `Cc1ccccc1/C=C1\CN(C(=O)OC(C)(C)C)C/C(=C\c2ccccc2C)C1=O`, the GI50 with 786-0 renal was 1.84 µM; in the test with A498 renal, 3 µM; in the test with DU-145 prostate, 2.37 µM; in the test on MCF7 breast it was 2.21 µM; in the test with MDA-MB-231 breast it was 3.49 µM; with NCI-H226 lung it was 2.01 µM. Further, the GI50 is 3.49 µM in the test with OVCAR-8 ovarian, 10.1 µM with SK-MEL-2 melanoma, 2.8 µM in the test on SK-MEL-28 melanoma and 3.65 µM in the test on TK-10 renal. The TGI with 786-0 renal is 3.52 µM; with A498 renal, 6.24 µM; with DU-145 prostate, 5.52 µM; with MCF7 breast, greater than 100 µM; in the test with MDA-MB-231 breast, 12.6 µM; in the test on NCI-H226 lung it was 4.14 µM. For the same compound, the TGI with OVCAR-8 ovarian is greater than 100 µM; in the test on SK-MEL-2 melanoma it was 26.5 µM; with SK-MEL-28 melanoma it was 6.43 µM; with TK-10 renal it was 15 µM.
For `CCN1CCN(C(=O)[C@]23CCC(C)(C)C[C@@H]2C2=CC[C@@H]4[C@@]5(C)C/C(=C/c6cccnc6)C(=O)C(C)(C)[C@@H]5CC[C@@]4(C)[C@]2(C)CC3)CC1`, the GI50 is 1.6 µM with 786-0 renal; 1.66 µM in the test with A498 renal; 1.83 µM in the test with DU-145 prostate; 1.4 µM in the test on MCF7 breast; 1.4 µM with MDA-MB-231 breast; 2.14 µM with OVCAR-8 ovarian. The results for the GI50 with SK-MEL-2 melanoma, in the test with SK-MEL-28 melanoma and in the test on TK-10 renal were 1.93 µM, 1.48 µM and 3.86 µM, respectively. For the same compound, the TGI was 3.08 µM with 786-0 renal; 3.53 µM in the test on A498 renal; 3.88 µM in the test with DU-145 prostate; 3.07 µM with MCF7 breast; 2.84 µM in the test on MDA-MB-231 breast; 5.54 µM in the test on OVCAR-8 ovarian. The results for the TGI in the test with SK-MEL-2 melanoma, in the test with SK-MEL-28 melanoma and in the test with TK-10 renal were 3.96 µM, 2.83 µM and 15.4 µM, respectively.
For the compound `CCCCCCCCCC(CCCC(O)CC(=O)O)OC1OC(COC2OC(C)C(O)C(O)C2O)C(O)C(O)C1OC1OC(CO)C(O)C(O)C1OC1OC(C)C(O)C(O)C1O` (stereo not drawn), the GI50 in the test with 786-0 renal, in the test with A498 renal, in the test on DU-145 prostate, in the test with MCF7 breast, with MDA-MB-231 breast and with NCI-H226 lung was greater than 40 µM each time. For the same compound, the GI50 with OVCAR-8 ovarian, in the test with SK-MEL-28 melanoma and with TK-10 renal was greater than 40 µM each time. For the same compound, the TGI in the test on 786-0 renal, in the test with A498 renal, with DU-145 prostate, in the test on MCF7 breast, with MDA-MB-231 breast and in the test on NCI-H226 lung was greater than 40 µM throughout. Also, the TGI with OVCAR-8 ovarian, in the test with SK-MEL-28 melanoma and in the test on TK-10 renal was greater than 40 µM each time.
`COc1ccc(-c2coc3cc(OC)cc(O)c3c2=O)cc1`: the TGI in the test on 786-0 renal is greater than 100 µM; with A498 renal, 89.1 µM; with DU-145 prostate, greater than 100 µM; in the test on MCF7 breast, greater than 100 µM; in the test with MDA-MB-231 breast, greater than 100 µM; in the test with NCI-H226 lung, greater than 100 µM. The figures for the TGI in the test on OVCAR-8 ovarian, in the test with SK-MEL-28 melanoma and in the test on TK-10 renal were greater than 100 µM, greater than 100 µM and 84.4 µM, respectively.
Consider `CC(=O)c1ccc(NCN2C(=O)c3ccccc3C2=O)cc1`, for which the TGI in the test with 786-0 renal, in the test on A498 renal, with DU-145 prostate, with MCF7 breast, in the test with MDA-MB-231 breast and in the test on OVCAR-8 ovarian was greater than 100 µM throughout. Also, the TGI with SK-MEL-2 melanoma, in the test on SK-MEL-28 melanoma and with TK-10 renal was greater than 100 µM each time.
Take `C[n+]1ccc(-c2c3nc(c(-c4ccc5c(ccc[n+]5C)c4)c4ccc([nH]4)c(-c4cc[n+](C)cc4)c4nc(c(-c5ccc6c(ccc[n+]6C)c5)c5ccc2[nH]5)C=C4)C=C3)cc1`: the GI50 with 786-0 renal was greater than 50 µM; with A498 renal, 27.2 µM; in the test on DU-145 prostate it was 30.7 µM; in the test with MCF7 breast, 42.5 µM; in the test with MDA-MB-231 breast, 16.3 µM; in the test with OVCAR-8 ovarian, greater than 50 µM. Moreover, the GI50 is 22.4 µM with SK-MEL-2 melanoma, 28.5 µM in the test on SK-MEL-28 melanoma and 10.1 µM in the test on TK-10 renal. The TGI with 786-0 renal, in the test on A498 renal, with DU-145 prostate, in the test with MCF7 breast, in the test on MDA-MB-231 breast and with OVCAR-8 ovarian was greater than 50 µM throughout. Also, the TGI in the test on SK-MEL-2 melanoma, in the test with SK-MEL-28 melanoma and in the test on TK-10 renal was greater than 50 µM in each case.
For `CC[C@]12CCCN3CC[C@]4(C(=C(C(=O)OC)C1)Nc1ccccc14)[C@@H]32`, the GI50 in the test on 786-0 renal is 13.9 µM; in the test on A498 renal it was 16.1 µM; in the test on DU-145 prostate, 16.8 µM; in the test on MCF7 breast, 16 µM; with MDA-MB-231 breast, 15.5 µM; in the test with OVCAR-8 ovarian, 17.6 µM. The GI50 in the test on SK-MEL-2 melanoma was 16.8 µM; in the test on SK-MEL-28 melanoma it was 21.3 µM; in the test with TK-10 renal, 19.9 µM. The TGI in the test on 786-0 renal is 29.1 µM; in the test on A498 renal, 32.4 µM; in the test with DU-145 prostate, 35.2 µM; in the test with MCF7 breast it was 33.8 µM; in the test on MDA-MB-231 breast, 38.1 µM; in the test with OVCAR-8 ovarian, 38.9 µM. Besides, the TGI in the test on SK-MEL-2 melanoma amounted to 39.2 µM; with SK-MEL-28 melanoma it was 64.7 µM; in the test on TK-10 renal it was 56.7 µM.
As to `CSc1nc2c(c(=O)[nH]1)C(c1ccc(Cl)cc1)C1=C(N2)/C(=C/c2ccc(Cl)cc2)CNC1` (stereo not drawn), the GI50 is 2.02 µM in the test on 786-0 renal; 2.68 µM with A498 renal; 3.36 µM with DU-145 prostate; 1.94 µM in the test on MCF7 breast; 1.75 µM in the test with MDA-MB-231 breast; 1.62 µM with NCI-H226 lung. Moreover, the GI50 in the test on OVCAR-8 ovarian was 2.7 µM; with SK-MEL-2 melanoma, 2.76 µM; in the test on SK-MEL-28 melanoma, 2.3 µM. Also, the TGI in the test on 786-0 renal was 4.46 µM; in the test on A498 renal, 11.3 µM; with DU-145 prostate it was 11.6 µM; in the test with MCF7 breast, 5.85 µM; in the test with MDA-MB-231 breast it was 4.48 µM; in the test with NCI-H226 lung, 3.27 µM. For the same compound, the TGI in the test with OVCAR-8 ovarian worked out at 8.72 µM; in the test on SK-MEL-2 melanoma it was 9.53 µM; in the test on SK-MEL-28 melanoma, 6.47 µM.
As for `O=C(CN1CCN(c2ccc(Cl)cc2)CC1)N1CCN(c2nnc(-c3ccccc3)c(-c3ccccc3)n2)CC1`, the GI50 in the test on 786-0 renal was 5.64 µM; in the test with A498 renal, greater than 100 µM; in the test on DU-145 prostate it was greater than 100 µM; in the test on MCF7 breast, 3.38 µM; in the test with MDA-MB-231 breast it was greater than 100 µM; in the test with NCI-H226 lung, greater than 100 µM. In addition, the GI50 was 52.4 µM in the test on OVCAR-8 ovarian, greater than 100 µM with SK-MEL-2 melanoma and greater than 100 µM with TK-10 renal. For the same compound, the TGI in the test with 786-0 renal, in the test on A498 renal, in the test with DU-145 prostate, in the test on MCF7 breast, in the test on MDA-MB-231 breast and in the test with NCI-H226 lung was greater than 100 µM throughout. Further, the TGI with OVCAR-8 ovarian, in the test on SK-MEL-2 melanoma and in the test with TK-10 renal was greater than 100 µM throughout.
